Results reported in US10092620B2, “Uses of cyclic peptides for treating and preventing atherosclerosis” (THE SCRIPPS RESEARCH INSTITUTE, priority 2013, dated 2018).
Non-standard residues stand in square brackets, D forms with d. 2Nal = N[C@@H](Cc1ccc2ccccc2c1)C(=O)O; d3Pal = N[C@H](Cc1cccnc1)C(=O)O; dOrn = NCCC[C@@H](N)C(=O)O; Orn = NCCC[C@H](N)C(=O)O

System: HDL in human plasma
Experiment: pre-beta HDL ELISA assay: remodeling HDL in human plasma in vitro
Format: biochemical
Conditions: for Pre-beta HDL generated (normalized level): pre-beta HDL ELISA
Procedure: First, various cyclic peptides, including the majority of compounds shown in FIG. 2, were assessed for activities for remodeling HDL in human plasma in vitro. Unlike western blot which was used to generate data shown in FIG. 2, here a pre-beta HDL ELISA assay was used to measure pre-beta HDL levels. Results from the assay are shown in Table 1, which lists the peptides in the order of their activities in remodeling HDL.

| Substance | Pre-beta HDL generated (normalized level) | activity in generating pre-beta HDL (in words) |
| --- | --- | --- |
| 35 (cyclo([dW]L[dW]R[dE]Q[dE][Orn]); SMILES CC(C)C[C@@H]1NC(=O)[C@@H](Cc2c[nH]c3ccccc23)NC(=O)[C@H](CCCN)NC(=O)[C@@H](CCC(=O)O)NC(=O)[C@H](CCC(N)=O)NC(=O)[C@@H](CCC(=O)O)NC(=O)[C@H](CCCNC(=N)N)NC(=O)[C@@H](Cc2c[nH]c3ccccc23)NC1=O) [compound 35] | 0.02 | – |
| 50 (cyclo(WIW[dR]E[dQ]E[dR]); SMILES CC[C@H](C)[C@@H]1NC(=O)[C@H](Cc2c[nH]c3ccccc23)NC(=O)[C@@H](CCCNC(=N)N)NC(=O)[C@H](CCC(=O)O)NC(=O)[C@@H](CCC(N)=O)NC(=O)[C@H](CCC(=O)O)NC(=O)[C@@H](CCCNC(=N)N)NC(=O)[C@H](Cc2c[nH]c3ccccc23)NC1=O) [compound 50] | 0.54 | – |
| c[wLwKeNeK] (cyclo([dW]L[dW]K[dE]N[dE]K); SMILES CC(C)C[C@@H]1NC(=O)[C@@H](Cc2c[nH]c3ccccc23)NC(=O)[C@H](CCCCN)NC(=O)[C@@H](CCC(=O)O)NC(=O)[C@H](CC(N)=O)NC(=O)[C@@H](CCC(=O)O)NC(=O)[C@H](CCCCN)NC(=O)[C@@H](Cc2c[nH]c3ccccc23)NC1=O) [SEQ ID NO:11] | 0.24 | – |
| 56 (cyclo([dF]F[dY]Y[dS]R[dK][Orn]); ring closure inferred) [compound 56] | 0.31 | – |
| 2 (cyclo([dW]L[dW]K[dD]Q[dE]K); SMILES CC(C)C[C@@H]1NC(=O)[C@@H](Cc2c[nH]c3ccccc23)NC(=O)[C@H](CCCCN)NC(=O)[C@@H](CCC(=O)O)NC(=O)[C@H](CCC(N)=O)NC(=O)[C@@H](CC(=O)O)NC(=O)[C@H](CCCCN)NC(=O)[C@@H](Cc2c[nH]c3ccccc23)NC1=O) [compound 2] | 0.10 | – |
| 71 (cyclo(WGWGW[dK]S[dOrn]); ring closure inferred) [compound 71] | 0.06 | – |
| 13 (cyclo([dW]L[dW][Orn][dE]Q[dE][Orn]); SMILES CC(C)C[C@@H]1NC(=O)[C@@H](Cc2c[nH]c3ccccc23)NC(=O)[C@H](CCCN)NC(=O)[C@@H](CCC(=O)O)NC(=O)[C@H](CCC(N)=O)NC(=O)[C@@H](CCC(=O)O)NC(=O)[C@H](CCCN)NC(=O)[C@@H](Cc2c[nH]c3ccccc23)NC1=O) [compound 13] | 0.46 | – |
| 80 (cyclo([dW]L[dW]R[dD]Q[dE]K); SMILES CC(C)C[C@@H]1NC(=O)[C@@H](Cc2c[nH]c3ccccc23)NC(=O)[C@H](CCCCN)NC(=O)[C@@H](CCC(=O)O)NC(=O)[C@H](CCC(N)=O)NC(=O)[C@@H](CC(=O)O)NC(=O)[C@H](CCCNC(=N)N)NC(=O)[C@@H](Cc2c[nH]c3ccccc23)NC1=O) [compound 80] | 0.01 | – |
| 10 (cyclo([dW]L[dW]K[dD]Q[dD]K); SMILES CC(C)C[C@@H]1NC(=O)[C@@H](Cc2c[nH]c3ccccc23)NC(=O)[C@H](CCCCN)NC(=O)[C@@H](CC(=O)O)NC(=O)[C@H](CCC(N)=O)NC(=O)[C@@H](CC(=O)O)NC(=O)[C@H](CCCCN)NC(=O)[C@@H](Cc2c[nH]c3ccccc23)NC1=O) [compound 10] | 0.12 | – |
| 30 (cyclo([dW]L[dW]S[dE]Q[dS]K)) [compound 30] | 0.06 | – |
| 58 (cyclo([d3Pal]L[dW]K[dS]K[dS]K); ring closure inferred) [compound 58] | 0.27 | – |
| 6 (cyclo(L[dW]L[dW]L[dR]K[dE]); SMILES CC(C)C[C@@H]1NC(=O)[C@@H](Cc2c[nH]c3ccccc23)NC(=O)[C@H](CC(C)C)NC(=O)[C@@H](Cc2c[nH]c3ccccc23)NC(=O)[C@H](CC(C)C)NC(=O)[C@@H](CCC(=O)O)NC(=O)[C@H](CCCCN)NC(=O)[C@@H](CCCNC(=N)N)NC1=O) [compound 6] | 0.36 | – |
| 78 (cyclo([dY]L[dW]K[dK]K); SMILES CC(C)C[C@@H]1NC(=O)[C@@H](Cc2ccc(O)cc2)NC(=O)[C@H](CCCCN)NC(=O)[C@@H](CCCCN)NC(=O)[C@H](CCCCN)NC(=O)[C@@H](Cc2c[nH]c3ccccc23)NC1=O) [compound 78] | 0.01 | – |
| 69 (cyclo([dL]W[dL]H[dE]K[dK]H); SMILES CC(C)C[C@H]1NC(=O)[C@H](Cc2c[nH]cn2)NC(=O)[C@@H](CCCCN)NC(=O)[C@H](CCCCN)NC(=O)[C@@H](CCC(=O)O)NC(=O)[C@H](Cc2c[nH]cn2)NC(=O)[C@@H](CC(C)C)NC(=O)[C@H](Cc2c[nH]c3ccccc23)NC1=O) [compound 69] | 0.07 | – |
| 61 (cyclo([dY]A[dY]L[dK]H[dK]K); SMILES CC(C)C[C@@H]1NC(=O)[C@@H](Cc2ccc(O)cc2)NC(=O)[C@H](C)NC(=O)[C@@H](Cc2ccc(O)cc2)NC(=O)[C@H](CCCCN)NC(=O)[C@@H](CCCCN)NC(=O)[C@H](Cc2c[nH]cn2)NC(=O)[C@@H](CCCCN)NC1=O) [compound 61] | 0.19 | – |
| 72 (cyclo([dL]W[dK]H[dS]H[dK]K); SMILES CC(C)C[C@H]1NC(=O)[C@H](CCCCN)NC(=O)[C@@H](CCCCN)NC(=O)[C@H](Cc2c[nH]cn2)NC(=O)[C@@H](CO)NC(=O)[C@H](Cc2c[nH]cn2)NC(=O)[C@@H](CCCCN)NC(=O)[C@H](Cc2c[nH]c3ccccc23)NC1=O) [compound 72] | 0.04 | – |
| 60 (cyclo([dW][2Nal][dK]S[dK]S[dK]S); ring closure inferred) [compound 60] | 0.20 | – |
| 57 (cyclo([dW]L[dW]K[dS]K); SMILES CC(C)C[C@@H]1NC(=O)[C@@H](Cc2c[nH]c3ccccc23)NC(=O)[C@H](CCCCN)NC(=O)[C@@H](CO)NC(=O)[C@H](CCCCN)NC(=O)[C@@H](Cc2c[nH]c3ccccc23)NC1=O) [compound 57] | 0.30 | – |
| 16 (cyclo(Y[dW]E[dL]Y[dS]K[dQ]); also: 2nd residue stated as DL-residue) [compound 16] | 0.09 | – |
| 54 (cyclo([dW]L[dW]R[dE]Q[dE]R); SMILES CC(C)C[C@@H]1NC(=O)[C@@H](Cc2c[nH]c3ccccc23)NC(=O)[C@H](CCCNC(=N)N)NC(=O)[C@@H](CCC(=O)O)NC(=O)[C@H](CCC(N)=O)NC(=O)[C@@H](CCC(=O)O)NC(=O)[C@H](CCCNC(=N)N)NC(=O)[C@@H](Cc2c[nH]c3ccccc23)NC1=O) [compound 54] | 0.46 | – |
| 52 (cyclo([dW]F[dF]Y[dR]H[dH]S); SMILES N=C(N)NCCC[C@H]1NC(=O)[C@H](Cc2ccc(O)cc2)NC(=O)[C@@H](Cc2ccccc2)NC(=O)[C@H](Cc2ccccc2)NC(=O)[C@@H](Cc2c[nH]c3ccccc23)NC(=O)[C@H](CO)NC(=O)[C@@H](Cc2c[nH]cn2)NC(=O)[C@H](Cc2c[nH]cn2)NC1=O) [compound 52] | 0.52 | – |
| 47 (cyclo(WIW[dW][dK][dH][dK][dH]); SMILES CC[C@H](C)[C@@H]1NC(=O)[C@H](Cc2c[nH]c3ccccc23)NC(=O)[C@@H](Cc2c[nH]cn2)NC(=O)[C@@H](CCCCN)NC(=O)[C@@H](Cc2c[nH]cn2)NC(=O)[C@@H](CCCCN)NC(=O)[C@@H](Cc2c[nH]c3ccccc23)NC(=O)[C@H](Cc2c[nH]c3ccccc23)NC1=O) [compound 47] | 0.79 | – |
| 76 (cyclo([dL]W[dL]K[dK]K[dH]R); SMILES CC(C)C[C@H]1NC(=O)[C@H](CCCNC(=N)N)NC(=O)[C@@H](Cc2c[nH]cn2)NC(=O)[C@H](CCCCN)NC(=O)[C@@H](CCCCN)NC(=O)[C@H](CCCCN)NC(=O)[C@@H](CC(C)C)NC(=O)[C@H](Cc2c[nH]c3ccccc23)NC1=O) [compound 76] | 0.03 | – |
| 55 (cyclo(L[dW]L[dW]L[dS]E[dK]); SMILES CC(C)C[C@@H]1NC(=O)[C@@H](Cc2c[nH]c3ccccc23)NC(=O)[C@H](CC(C)C)NC(=O)[C@@H](Cc2c[nH]c3ccccc23)NC(=O)[C@H](CC(C)C)NC(=O)[C@@H](CCCCN)NC(=O)[C@H](CCC(=O)O)NC(=O)[C@@H](CO)NC1=O) [compound 55] | 0.35 | – |
| 48 (cyclo([dW]F[dY]Y[dH][Orn][dR]S); SMILES N=C(N)NCCC[C@H]1NC(=O)[C@H](CCCN)NC(=O)[C@@H](Cc2c[nH]cn2)NC(=O)[C@H](Cc2ccc(O)cc2)NC(=O)[C@@H](Cc2ccc(O)cc2)NC(=O)[C@H](Cc2ccccc2)NC(=O)[C@@H](Cc2c[nH]c3ccccc23)NC(=O)[C@H](CO)NC1=O) [compound 48] | 0.70 | – |
| 51 (cyclo([dF]W[dW]Y[dT]R[dH]S); SMILES C[C@H](O)[C@H]1NC(=O)[C@H](Cc2ccc(O)cc2)NC(=O)[C@@H](Cc2c[nH]c3ccccc23)NC(=O)[C@H](Cc2c[nH]c3ccccc23)NC(=O)[C@@H](Cc2ccccc2)NC(=O)[C@H](CO)NC(=O)[C@@H](Cc2c[nH]cn2)NC(=O)[C@H](CCCNC(=N)N)NC1=O) [compound 51] | 1.44 | – |
| 23 (cyclo([dW]L[dW]R[dE]N[dE][Orn]); SMILES CC(C)C[C@@H]1NC(=O)[C@@H](Cc2c[nH]c3ccccc23)NC(=O)[C@H](CCCN)NC(=O)[C@@H](CCC(=O)O)NC(=O)[C@H](CC(N)=O)NC(=O)[C@@H](CCC(=O)O)NC(=O)[C@H](CCCNC(=N)N)NC(=O)[C@@H](Cc2c[nH]c3ccccc23)NC1=O) [compound 23] | 0.16 | – |
| 26 (cyclo([dW]L[dL][dW]K[dD]D[dK]); not fully specified (residues 5, 7)) [compound 26] | 0.36 | – |
| c[fWwYtRhS] (cyclo([dF]W[dW]Y[dT]R[dH]S); SMILES C[C@H](O)[C@H]1NC(=O)[C@H](Cc2ccc(O)cc2)NC(=O)[C@@H](Cc2c[nH]c3ccccc23)NC(=O)[C@H](Cc2c[nH]c3ccccc23)NC(=O)[C@@H](Cc2ccccc2)NC(=O)[C@H](CO)NC(=O)[C@@H](Cc2c[nH]cn2)NC(=O)[C@H](CCCNC(=N)N)NC1=O) [SEQ ID NO:51] | – | excellent activities in promoting generation of pre-beta HDL |
| 34 (cyclo([dY]D[dY]W[dY]H[dA]K); not fully specified (residues 2, 4, 6, 8)) [compound 34] | 0.08 | – |
